Consider 31 compounds from patent publication US12239643B2, “Therapeutic agent for inflammatory diseases, autoimmune diseases, fibrotic diseases, and cancer diseases” (MEIJI SEIKA PHARMA CO., LTD., priority 2018, dated 2025).

One experiment has as its system PDE4. As to the kind of experiment: Evaluation of PDE4 inhibitory activity, scintillation proximity assay. The format is biochemical. To be noted: scintillation proximity assay; class symbols of Evaluation 1; read-out: PDE4 Inhibitory Activity (concentration for the inhibition rate of 50%, IC50), Evaluation 1. Here is the method: The BDE4 inhibitory activity was measured using scintillation proximity assay (SPA) as follows. First, a test compound dissolved in dimethyl sulfoxide was diluted 1:10 in reaction buffer solution which contained 50 mM of Tris-HCl with pH 7.4, 8.3 mM of MgCl2, 1.7 mM of EGTA, and 3 mg/mL of bovine serum albumin (BSA). Then, 10 μL of the diluted solution was added in a 96-well assay plate. Moreover, 50 μL of PDE4 (enzyme preparation) diluted 1:375 in the reaction buffer solution was added, and then 40 μL of [2,8-^3H]-adenosine-3′,5′-cyclic phosphate triethylammonium salt diluted 1:1000 in the reaction buffer solution was added. The mixture was allowed to stand at room temperature for 120 minutes. Thereafter, […] of RNA binding YSi-SPA beads suspension containing ZnSO4 was added and the mixture was allowed to stand at room temperature for 15 minutes, followed by adsorption of the enzyme reaction product to the beads. After that, the radioactivity was measured using a liquid scintillation counter for a 96-well plate. The mixture without the enzyme preparation added but only the reaction buffer solution added is a blank, and the mixture with the enzyme preparation added and only dimethyl sulfoxide added instead of the test compound is a control.
In addition, the PDE4 inhibitory activity (concentration that inhibits PDE4 activity by 50%=concentration for the inhibition rate of 50% (IC50)) of the test compound was calculated from the inhibition curves based on the inhibition rates for various concentrations of the test compound.
(SPA uses beads or plates that emit light when radiolabelled molecules are held near them.)
On to `COc1ccc(-c2nccs2)c2oc(N3CC4CC(C3)N4)nc12` [Example 76, 2-(3,6-Diazabicyclo[3.1.1]heptan-3-yl)-4-methoxy-7-(thiazol-2-yl)benzo[d]oxazole], for which the IC50 was below 100 nM.
Same read-out and setting: the figure for `Cc1ccc(-c2nccs2)c2oc(N3CC4CCCC(C3)N4)nc12` [Example 27, 2-(3,9-Diazabicyclo[3.3.1]nonan-3-yl)-4-methyl-7-(thiazol-2-yl)benzo[d]oxazole] is below 100 nM.
Regarding `COC(c1ccc(-c2nccs2)c2oc(N3CC4CC(C3)N4)nc12)C(F)F` (stereo not shown) [Example 130, 2-(3,6-Diazabicyclo[3.1.1]heptan-3-yl)-4-(2,2-difluoro-1-methoxyethyl)-7-(thiazol-2-yl)benzo[d]oxazole], the IC50 was below 100 nM.
The same measure, in the same setting: as for `CC(=O)c1cc(-c2nccs2)c2oc(N3CC4CCC(C3)N4)nc2c1C(F)(F)F` [Example 179, 1-(2-(3,8-Diazabicyclo[3.2.1]octan-3-yl)-7-(thiazol-2-yl)-4-(trifluoromethyl)benzo[d]oxazol-5-yl)ethan-1-one], the figure is below 100 nM.
The same measure, in the same setting: the figure for `OCc1ccc(-c2nccs2)c2oc(N3CC4CCC(C3)N4)nc12` [Example 132, (2-(3,8-Diazabicyclo[3.2.1]octan-3-yl)-7-(thiazol-2-yl)benzo[d]oxazol-4-yl)methanol] is below 100 nM; for `CS(=O)(=O)c1cc(-c2nccs2)c2oc(N3CC4CC(C3)N4)nc2c1` [Example 46, 2-(3,6-Diazabicyclo[3.1.1]heptan-3-yl)-5-(methylsulfonyl)-7-(thiazol-2-yl)benzo[d]oxazole] it is below 100 nM; for `COC(C)(C)c1cc(-c2nccs2)c2oc(N3CC4CCC(C3)N4)nc2c1` [Example 175, 2-(3,8-Diazabicyclo[3.2.1]octan-3-yl)-5-(2-methoxypropan-2-yl)-7-(thiazol-2-yl)benzo[d]oxazole] it is below 100 nM.
In the case of `CCOC(=O)c1cc(-n2cccn2)c2oc(N3CC4CCC(C3)N4)nc2c1` [Example 90, Ethyl 2-(3,8-diazabicyclo[3.2.1]octan-3-yl)-7-(1H-pyrazol-1-yl)benzo[d]oxazole-5-carboxylate], the IC50 lay in the range of 100 to 1000 nM.
On the same count and under the same terms, as for `Oc1ccc(-c2nccs2)c2oc(N3CC4CCCC(C3)N4)nc12` [Example 80, 2-(3,9-Diazabicyclo[3.3.1]nonan-3-yl)-7-(thiazol-2-yl)benzo[d]oxazol-4-ol], the figure is below 100 nM.
Still for that read-out and setting: the figure for `FC(F)(F)COc1cc(-c2nccs2)c2oc(N3CC4CCC(C3)N4)nc2c1` [Example 66, 2-(3,8-Diazabicyclo[3.2.1]octan-3-yl)-7-(thiazol-2-yl)-5-(2,2,2-trifluoroethoxy)benzo[d]oxazole] is below 100 nM.
Still for that read-out and setting: the figure for `CC(=O)c1cc(-c2nccs2)c2oc(N3CC4CC(C3)N4)nc2c1` [Example 109, 1-(2-(3,6-Diazabicyclo[3.1.1]heptan-3-yl)-7-(thiazol-2-yl)benzo[d]oxazol-5-yl)ethan-1-one] is below 100 nM; for `O=C(O)COc1cc(-c2nccs2)c2oc(N3CC4CCC(C3)N4)nc2c1` [Example 74, 2-((2-(3,8-Diazabicyclo[3.2.1]octan-3-yl)-7-(thiazol-2-yl)benzo[d]oxazol-5-yl)oxy)acetic acid] it is below 100 nM.
For the compound `CC(=O)OC(c1cc(-c2nccs2)c2oc(N3CC4CCC(C3)N4)nc2c1)C(F)(F)F` (stereo not shown) [Example 141, 1-(2-(3,8-Diazabicyclo[3.2.1]octan-3-yl)-7-(thiazol-2-yl)benzo[d]oxazol-5-yl)-2,2,2-trifluoroethyl acetate], the IC50 is below 100 nM.
Still for that read-out and setting: as for `FC(F)(F)c1c(Cl)cc(-c2ccccn2)c2oc(N3CC4COCC(C3)N4)nc12` [Example 14, 7-(5-Chloro-7-(pyridin-2-yl)-4-(trifluoromethyl)benzo[d]oxazol-2-yl)-3-oxa-7,9-diazabicyclo[3.3.1]nonane], the figure is 100 to 1000 nM.

Staying with this experiment, now noted: scintillation proximity assay; read-out: PDE4 Inhibitory Activity (Evaluation 1; concentration for the inhibition rate of 50%).
On to `CC(C)(O)C(F)(F)OC(c1ccc(-c2nccs2)c2oc(N3CC4CC(C3)N4)nc12)C(F)(F)F` (stereo not shown) [Example 257, 1-(1-(2-(3,6-Diazabicyclo[3.1.1]heptan-3-yl)-7-(thiazol-2-yl)benzo[d]oxazol-4-yl)-2,2,2-trifluoroethoxy)-1,1-difluoro-2-methylpropan-2-ol], for which the IC50 is below 100 nM.
Turning to `OC1CCC(Oc2ccc(-c3nccs3)c3oc(N4CC5CC(C4)N5)nc23)CC1` (stereo not shown) [Example 305, 4-((2-(3,6-Diazabicyclo[3.1.1]heptan-3-yl)-7-(thiazol-2-yl)benzo[d]oxazol-4-yl)oxy)cyclohexan-1-ol], the IC50 is below 100 nM.
Consider `C[C@H](O)COc1ccc(-c2nccs2)c2oc(N3CC4CC(C3)N4)nc12` [Example 260, (2S)-1-((2-(3,6-diazabicyclo[3.1.1]heptan-3-yl)-7-(thiazol-2-yl)benzo[d]oxazol-4-yl)oxy)propan-2-ol], for which the IC50 is below 100 nM.
Still for that read-out and setting: as for `c1csc(-c2ccc(N3CCCC3)c3nc(N4CC5CC(C4)N5)oc23)n1` [Example 415, 2-(3,6-Diazabicyclo[3.1.1]heptan-3-yl)-4-(pyrrolidin-1-yl)-7-(thiazol-2-yl)benzo[d]oxazole], the figure is below 100 nM.
Same read-out and setting: the figure for `COC(C)c1cc(-c2nccs2)c2oc(N3CC4CCC(C3)N4)nc2c1C(F)(F)F` (stereo not shown) [Example 184, 2-(3,8-Diazabicyclo[3.2.1]octan-3-yl)-5-(1-methoxyethyl)-7-(thiazol-2-yl)-4-(trifluoromethyl)benzo[d]oxazole] is below 100 nM.
Same read-out and setting: as for `O=C(c1cc(-c2nccs2)c2oc(N3CC4CCC(C3)N4)nc2c1OC(F)(F)F)N1CC(O)(C(F)(F)F)C1` [Example 194, (2-(3,8-Diazabicyclo[3.2.1]octan-3-yl)-7-(thiazol-2-yl)-4-(trifluoromethoxy)benzo[d]oxazol-5-yl)(3-hydroxy-3-(trifluoromethyl)azetidin-1-yl)methanone], the figure is 100 to 1000 nM.
Turning to `COC(C)(C)c1cc(-c2nccs2)c2oc(N3CC4CCCC(C3)N4)nc2c1OC(F)(F)F` [Example 200, 2-(3,9-Diazabicyclo[3.3.1]nonan-3-yl)-5-(2-methoxypropan-2-yl)-7-(thiazol-2-yl)-4-(trifluoromethoxy)benzo[d]oxazole], the IC50 is below 100 nM.
Still for that read-out and setting: as for `COC1(COC(c2ccc(-c3nccs3)c3oc(N4CC5CC(C4)N5)nc23)C(F)(F)F)CC1` (stereo not shown) [Example 282, 2-(3,6-Diazabicyclo[3.1.1]heptan-3-yl)-7-(thiazol-2-yl)-4-(2,2,2-trifluoro-1-((1-methoxycyclopropyl)methoxy)ethyl)benzo[d]oxazole], the figure is below 100 nM; as for `OC1(COC(c2ccc(-c3cscn3)c3oc(N4CC5CC(C4)N5)nc23)C(F)(F)F)CC1` (stereo not shown) [Example 286, 1-((1-(2-(3,6-Diazabicyclo[3.1.1]heptan-3-yl)-7-(thiazol-4-yl)benzo[d]oxazol-4-yl)-2,2,2-trifluoroethoxy)methyl)cyclopropan-1-ol], below 100 nM.
On the same count and under the same terms, the figure for `CC(=O)c1cc(-c2nccs2)c2oc(N3CC4CCC(C3)N4)nc2c1OC(F)(F)F` [Example 213, 1-(2-(3,8-Diazabicyclo[3.2.1]octan-3-yl)-7-(thiazol-2-yl)-4-(trifluoromethoxy)benzo[d]oxazol-5-yl)ethan-1-one] is below 100 nM; for `CCOC(c1ccc(-c2nccs2)c2oc(N3CC4CCC(C3)N4)nc12)C(F)(F)F` (stereo not shown) [Example 220, 2-(3,8-Diazabicyclo[3.2.1]octan-3-yl)-4-(1-ethoxy-2,2,2-trifluoroethyl)-7-(thiazol-2-yl)benzo[d]oxazole] it is below 100 nM.
On to `COC1(c2cc(-c3nccs3)c3oc(N4CC5CC(C4)N5)nc3c2OC(F)(F)F)CC1` [Example 283, 2-(3,6-Diazabicyclo[3.1.1]heptan-3-yl)-5-(1-methoxycyclopropyl)-7-(thiazol-2-yl)-4-(trifluoromethoxy)benzo[d]oxazole], for which the IC50 was below 100 nM.
Same read-out and setting: the figure for `CC(O)(c1ccc(-c2nccs2)c2oc(N3CC4CC(C3)N4)nc12)C(F)(F)F` (stereo not shown) [Example 271, 2-(2-(3,6-Diazabicyclo[3.1.1]heptan-3-yl)-7-(thiazol-2-yl)benzo[d]oxazol-4-yl)-1,1,1-trifluoropropan-2-ol] is below 100 nM.
Turning to `CC(O)C(F)(F)OC(c1ccc(-c2nccs2)c2oc(N3CC4CC(C3)N4)nc12)C(F)(F)F` (stereo not shown) [Example 265, 1-(1-(2-(3,6-Diazabicyclo[3.1.1]heptan-3-yl)-7-(thiazol-2-yl)benzo[d]oxazol-4-yl)-2,2,2-trifluoroethoxy)-1,1-difluoropropan-2-ol], the IC50 was below 100 nM.
As to `CC(C)(O)C1CC(Oc2ccc(-c3nccs3)c3oc(N4CC5CC(C4)N5)nc23)C1` (stereo not shown) [Example 267, 2-(3-((2-(3,6-Diazabicyclo[3.1.1]heptan-3-yl)-7-(thiazol-2-yl)benzo[d]oxazol-4-yl)oxy)cyclobutyl)propan-2-ol], the IC50 is below 100 nM.
On to `CC(O)(O)C(F)(F)Oc1ccc(-c2nccs2)c2oc(N3CC4CC(C3)N4)nc12` [Example 377, 1-((2-(3,6-Diazabicyclo[3.1.1]heptan-3-yl)-7-(thiazol-2-yl)benzo[d]oxazol-4-yl)oxy)-1,1-difluoropropane-2,2-diol], for which the IC50 was below 100 nM.
As for `N#CC1CC(Oc2ccc(-c3nccs3)c3oc(N4CC5CC(C4)N5)nc23)C1` (stereo not shown) [Example 266, 3-((2-(3,6-Diazabicyclo[3.1.1]heptan-3-yl)-7-(thiazol-2-yl)benzo[d]oxazol-4-yl)oxy)cyclobutane-1-carbonitrile], the IC50 is below 100 nM.
